Results: patent US5514821A, “Ring-labeled retinoids and intermediates, and methods for their synthesis and use” (Ligand Pharmaceuticals Incorporated, priority 1994, dated 1996)

How the values were obtained:
RARs and RXRs [1] = test: binding to baculovirus-derived RARs and RXRs (overall finding in words); details: RARα,β,γ and RXRα,β,γ; for binding to RARs and RXRs (in words): saturation binding
Excerpt: Exp. Stat. Bull., No. 155 (1987).
[…]. […] […].

RARs and RXRs [2] = details: Heyman et al., Cell, 68:397 (1992); cited from earlier work

Row | Structure (SMILES) | activity on the retinoid receptors (in words, per Table 1) (RARs and RXRs [1]) | binding to RARs and RXRs (in words) (RARs and RXRs [1]) | binding to RARs and RXRs (in words) (RARs and RXRs [1]; listed as 9-cis retinoic acid) | binding to RARs and RXRs (in words) (RARs and RXRs [1]; listed as 9-cis-retinoic acid) | binding to and modulating gene expression via the RARs and RXRs (RARs and RXRs [2])
1 | CC1=C(/C=C/C(C)=C/C=C/C(C)=C/C(=O)O)C(C)(C)CCC1 [ATRA, all-trans retinoic acid] | only active on RARα,β,γ | only binds to the RARs | – | – | –
2 | CC1=C(/C=C/C(C)=C\C=C\C(C)=C\C(=O)O)C(C)(C)CCC1 [9-cis RA, 9-cis retinoic acid] | active on all six known retinoid receptors | – | binds to the RARs and RXRs with high affinity in a saturable and specific manner | effectively binds to all six receptors | capable of binding to and modulating gene expression via the RARs and RXRs
